{"source": "patent US11492347B2", "about": "(ENYO PHARMA, priority 2018, dated 2022)", "key": {"[1]": {"tested_on": "NFκB", "assay": "NFκB reporter assay, TNFα stimulation of A549 NFκB-NanoLuciferase reporter cells", "type": "cell-based", "conditions": "Homo sapiens, 4 ng/ml TNFα, NanoGlo luciferase assay 6 hours later", "description": "Compounds of the present invention have been tested for their capacity to inhibit NFκB.\nThe NFκB reporter construct was made by cloning 5 NFκB responsive elements upstream of a NanoLuciferase reporter gene flanked by AAVS1 genomic sequences.\nNFκB Responsive element fused with NanoLuciferase and SV40 late Poly(A) signal was amplified from pNL3.2-NFκB-Nluc (Promega) using NFKB-NLUC-F and NFKB-NLUC-R primers and inserted by Infusion (TaKaRa) in AAVS1 SA-2A-puro-pA donor plasmid (Hockemeyer et al, Nat Biotechnol. 2009, 27, 851-7) digested by Sal1. pCRISPR AAVS1-T2 expressing a guide RNA (gRNA) to target human AAVS1 (T2 target sequence) was constructed by inserting AAVS1-T2A hybridized primers in pLentiCRISPR v2-blast (Sanjana et al, Nat Methods. 2014, 11, 783-4) digested by Bsmbl.\nA549 cells were transfected by the plasmids and puromycine selected for 5 days (1 μg mL-1). Then clones were obtained by limiting dilution and selected to maximize TNF dependent NFκB-NanoLuciferase induction.\nThe reporter cells were seeded on a 96-well plate for overnight with DMEM including 10% FBS. Test compounds were added at varying concentrations. The cells then were treated with 4 ng/ml TNFα (Peprotech, ref E251) in DMEM+10% FBS. NanoGlo luciferase assay (Promega) was carried out 6 hours later. Luminescence was measured using a Spark 20M spectrofluorimeter (Tecan). Values were normalized to the luminescence measured in untreated cells."}, "[2]": {"tested_on": "UXF 1138", "assay": "Cytotoxicity, propidium iodide based monolayer assay", "type": "cell-based", "conditions": "96 h; UXF 1138 uterine sarcoma, four days of treatment, T/C=50%; read-out: Absolute IC50", "protocol": "(§1) The cytotoxicity was tested for compounds of the invention on five different cell-lines, namely LXFL 1121, MAXF 401, MMXF L-636, PRXF PC-3M and UXF 1138 which are respectively lung large cell carcinoma, breast adeno carcinoma, multiple myeloma, prostate adeno carcinoma and uterine sarcoma.\n(§2) A working stock solution of the test compounds was prepared in DMSO at a concentration of 33 mM or 8.25 mM, and small aliquots were stored at −20° C. On each day of an experiment, a frozen aliquot of the working stock solution was thawed and stored at room temperature prior to and during treatment.\n(§3) All liquid handling steps were performed using the Tecan Freedom EVO 200 platform. First, serial 2-fold dilutions of the 33 mM DMSO working stock solution were done in DMSO. The DMSO dilutions were then diluted 1:22 into cell culture medium in an intermediate dilution plate. Finally, 10 μl taken from the intermediate dilution plate were transferred to 140 μl/well of the final assay plate. Thus, the DMSO serial dilutions were diluted 1:330 with cell culture medium, and the DMSO concentration in the assay was 0.3% v/v.\n(§4) Cell lines were routinely passaged once or twice weekly and maintained in culture for up to 20 passages. Most cell lines were grown at 37° C. in a humidified atmosphere with 5% CO2 in RPMI 1640 medium (25 mM HEPES, with L-glutamine, #FG1385, Biochrom, Berlin, Germany) supplemented with 10% (v/v) fetal calf serum (Sigma, Taufkirchen, Germany) and 0.05 mg/mL gentamicin (Life Technologies, Karlsruhe, Germany).\n(§5) A modified propidium iodide (PI) based monolayer assay was used to assess the anti-cancer activity of the compounds. Briefly, cells were harvested from exponential phase cultures, counted and plated in 96 well flat-bottom microtiter plates at a cell density of 4,000 to 40,000 cells/well dependent on the cell line's growth rate. The individual seeding density for each cell line ensure exponential growth conditions over the whole or at least the bigger part of the treatment period. After a 24 h recovery period, to allow the cells to resume exponential growth, 10 μl of culture medium (6 control wells/cell line/plate) or of culture medium with test compounds were added. Compounds were applied at ten concentrations in 2-fold increments in duplicates up to 25 μM or 100 μM and treatment continued for four days. After four days of treatment, cells were next washed with 200 μl PBS to remove dead cells and debris, then 200 μl of a solution containing 7 μg/ml propidium iodide (PI) and 0.1% (v/v) Triton X-100 was added. After an incubation period of 1-2 hours at room temperature, fluorescence (FU) was measured using the Enspire Multimode Plate Reader (excitation λ=530 nm, emission k=620 nm) to quantify the amount of attached viable cells.\n(§6) Drug effects were expressed in terms of the percentage of the fluorescence signal, obtained by comparison of the mean signal in the treated wells with the mean signal of the untreated controls (expressed by the test-versus-control value, T/C−value [%]):\n(§7) [formula] IC values reported reflect the concentration of the test compound that achieves T/C=50%. Calculation was done by 4 parameter non-linear curve fit."}, "[3]": {"tested_on": "MMXF L-363", "assay": "Cytotoxicity, propidium iodide based monolayer assay", "type": "cell-based", "conditions": "Homo sapiens, 96 h; MMXF L-363 multiple myeloma, four days of treatment, T/C=50%; read-out: Absolute IC50", "protocol": "as §1, §2, §3, §4, §5, §6, §7"}, "[4]": {"tested_on": "LXFL 1121", "assay": "Cytotoxicity, propidium iodide based monolayer assay", "conditions": "96 h; LXFL 1121 lung large cell carcinoma, four days of treatment, T/C=50%; read-out: Absolute IC50", "protocol": "as §1, §2, §3\nCell lines were routinely passaged once or twice weekly and maintained in culture for up to 20 passages. […]\nA modified propidium iodide (PI) based monolayer assay was used to assess the anti-cancer activity of the compounds. Briefly, cells were harvested from exponential phase cultures, counted and plated in 96 well flat-bottom microtiter plates at a cell density of 4,000 to 40,000 cells/well dependent on the cell line's growth rate. […] After an incubation period of 1-2 hours at room temperature, fluorescence (FU) was measured using the Enspire Multimode Plate Reader (excitation λ=530 nm, emission k=620 nm) to quantify the amount of attached viable cells.\nDrug effects were expressed in terms of the percentage of the fluorescence signal, obtained by comparison of the mean signal in the treated wells with the mean signal of the untreated controls (expressed by the test-versus-control value, T/C−value [%]): […]"}, "[5]": {"tested_on": "PRXF PC-3M", "assay": "Cytotoxicity, propidium iodide based monolayer assay", "type": "cell-based", "conditions": "Homo sapiens, 96 h; PRXF PC-3M prostate adeno carcinoma, four days of treatment, T/C=50%; read-out: Absolute IC50", "protocol": "as §1, §2, §3, §4, §5, §6, §7"}, "[6]": {"tested_on": "MAXF 401", "assay": "Cytotoxicity, propidium iodide based monolayer assay", "type": "cell-based", "conditions": "Homo sapiens, MAXF401, 96 h; MAXF 401 breast adeno carcinoma, four days of treatment, T/C=50%; read-out: Absolute IC50", "protocol": "as §1, §2, §3, §4, §5, §6, §7"}}, "data": [{"smiles": "CC1(C)Cc2c(sc(NC(=O)c3ccc(N4CCOCC4)cc3)c2C(=O)O)C(C)(C)C1", "note": "[Compound #36, 5,5,7,7-Tetramethyl-2-[(4-morpholinobenzoyl)amino]-4,6-dihydrobenzothiophene-3-carboxylic acid]", "values": [{"measurement": "EC50", "setting": "[1]", "value": 200, "unit": "nM"}, {"measurement": "IC50", "setting": "[2]", "value": 988, "unit": "nM"}, {"measurement": "IC50", "setting": "[3]", "value": 1.72, "unit": "µM"}]}, {"smiles": "CC1(C)CCc2sc(NC(=O)c3ccccc3)c(C(=O)O)c21", "note": "[Compound #37, 2-Benzamido-4,4-dimethyl-5,6-dihydrocyclopenta[b]thiophene-3-carboxylic acid]", "values": [{"measurement": "IC50", "setting": "[4]", "value": 24.7, "unit": "µM"}, {"measurement": "IC50", "setting": "[2]", "value": 9420, "unit": "nM"}, {"measurement": "IC50", "setting": "[5]", "value": 9.67, "unit": "µM"}, {"measurement": "IC50", "setting": "[3]", "value": 13.9, "unit": "µM"}, {"measurement": "IC50", "setting": "[6]", "value": 11.3, "unit": "µM"}]}, {"smiles": "COC1CN(c2ccc(C(=O)Nc3sc4c(c3C(=O)O)CC(C)(C)CC4(C)C)cc2)C1", "note": "[Compound #58, 2-[[4-(3-Methoxyazetidin-1-yl)benzoyl]amino]-5,5,7,7-tetramethyl-4,6-dihydrobenzothiophene-3-carboxylic acid]", "values": [{"measurement": "IC50", "setting": "[4]", "value": 1.77, "unit": "µM"}, {"measurement": "IC50", "setting": "[2]", "value": 819, "unit": "nM"}, {"measurement": "IC50", "setting": "[5]", "value": 0.888, "unit": "µM"}]}]}
